Reference: patent EP4121415B1, “INHIBITORS OF CYTOKININ OXIDASE DERIVED FROM 1-[2-(HYDROXYALKYL)PHENYL]-3-YLUREA, USE THEREOF AND PREPARATIONS CONTAINING THESE DERIVATIVES” (Univerzita Palackého v Olomouci, priority 2020, dated 2021)
Like-named read-outs stand apart in the source and are kept apart here.

Assays:
[1] = tested on: segments of wheat leaves (Triticum aestivum cv. Hereward); test: wheat leaf senescence assay performed in the dark (chlorophyll retention in detached leaf segments); assay type: in vivo; details: 10 micromolar, 96 hours in the dark at 25 °C, compared to yellow control (0,2% DMSO); for activation at 10 µM: Triticum aestivum, foliar, read-out: (% of chlorophyll above control)
Method: Seeds of winter wheat (Triticum aestivum cv. Hereward) was washed under running water for 4 hours and then sown in vermiculite saturated with Knop's nutrient solution. The trays with seeds were placed in an air-conditioned growth chamber with a 16/8 hour light regime (light intensity 50 µmol.m^-2.s^-1) and a temperature of 15 °C. After 7 days, the seedlings had developed the first […] and the second leaf began to grow. Top sections approximately 4 cm long were excised from the first leaves of 4 plants and their combined weight was adjusted to exactly 100 mg. The basal ends of these 4 leaf segments were placed in the wells of microtiter polystyrene plates containing solution (150 µL) of the tested derivative. The plates were placed in a plastic box with filter paper, which was saturated with water (to maintain the maximum humidity). After 96 hours of incubation in the dark at 25 °C, the leaf segments were removed and the chlorophyll was extracted to 5 mL of 80% ethanol by heating the leaf segments in ethanol at 80 °C for 40 min. The sample volume was then adjusted to 5 mL by adding 80% ethanol. The absorbance of the extracts was measured at 665 nm. Chlorophyll extracts from leaf segments incubated in deionized water (so-called yellow control) were also measured as controls. Freshly cut leaves (100 mg) were used as a green control, from which chlorophyll was extracted and measured in the same manner. The calculated values are the average of 5 replicates and the whole experiment was repeated two times. The tested compounds were dissolved in dimethyl sulfoxide (DMSO) to a concentration 10^-2 M. This stock solution was further diluted with water to a concentration of 10 micromolar. At this concentration, the substances were tested.

[2] = molecular target: T1, maize enzyme cytokinin oxidase/dehydrogenase 1 (ZmCKX1) (Zea mays, UniProt Q9T0N8); test: ZmCKX1 inhibition, PMS/MTT assay; assay type: biochemical
T1 construct: made in house; host or cells: Yarrowia lipolytica
Method: The IC50 (concentration of a substance that causes 50% inhibition of the enzyme activity) was measured by PMS/MTT assay [phenazine methosulphate/3-(4,5-dimethylthiazol-2-yl)-2,5-diphenyltetrazolium bromide]. The assay was performed in 96-well microtiter plates. Each well contained a reaction mixture with a final concentration of: 0.1 M KH2PO4, pH 7.4, 1 mM MTT, 0.2 mM PMS, tested substance in a concentration range of 0.1 nM - 1 µM and 10 µM N^6-isopentenyladenine (iP) as a substrate. To this reaction mixture 100 µL of medium containing the active enzyme ZmCKX1 was added. The enzyme was produced by the yeast Yarrowia lipolytica and isolated according to the protocol (Kopečný D. et al., 2005, […] 87:1011-1022). The plates were incubated for 30 min at 37 °C and the enzymatic reaction was stopped by the addition of 25 µL of 35% acetic acid. Then, the absorbance at 578 nm was measured on a spectrophotometer, and the absorbance of the sample without the substrate was substracted as a reference value. The IC50 value was determined from the concentration-dependent curves in GraphPad Prism software. The values shown in Table 1 are the average of at least two measurements each performed in three repetitions. […] This also applies to 3,5-DCl-Ph-U derivatives.

[3] = tested on: winter wheat (Triticum aestivum cv. Hereward); test: salt-induced senescence of wheat plants; assay type: in vivo; details: 100 nM aqueous solution, 75 mM NaCl seven days after planting, assessed 30 days after planting
Method: To investigate the effects of compounds 64 and 66 on salt-induced senescence, seeds of winter wheat (Triticum aestivum cv. Hereward) were washed under running water for 4 hours and then sown on perlite soaked with water (control) or 100 nM aqueous solution of compounds 64 or 66. Trays with seeds were placed in a growth chamber at 25 °C for 16/8 h light/dark at an intensity of 50 µmol.m^-2.s^-1. Seven days after planting, the plants were treated with 75 mM NaCl solution. The plants were allowed to grow and the plant damage was assessed 30 days after planting.
While untreated plants have the first leaves dead and the second leaves yellow, plants treated with CKX inhibitors have the first leaves yellowing and the second leaves green. […] This in vivo experiment is evidence that CKX inhibitors prolong the photosynthetic activity of wheat plants that have been exposed to environmental stress.

[4] = 10 µM N6-isopentenyladenine (iP) as substrate, pH 7.4, 30 min at 37 °C, average of at least two measurements, read-out: IC50 (µM) ZmCKX1

T1 sequence (Q9T0N8 19-534): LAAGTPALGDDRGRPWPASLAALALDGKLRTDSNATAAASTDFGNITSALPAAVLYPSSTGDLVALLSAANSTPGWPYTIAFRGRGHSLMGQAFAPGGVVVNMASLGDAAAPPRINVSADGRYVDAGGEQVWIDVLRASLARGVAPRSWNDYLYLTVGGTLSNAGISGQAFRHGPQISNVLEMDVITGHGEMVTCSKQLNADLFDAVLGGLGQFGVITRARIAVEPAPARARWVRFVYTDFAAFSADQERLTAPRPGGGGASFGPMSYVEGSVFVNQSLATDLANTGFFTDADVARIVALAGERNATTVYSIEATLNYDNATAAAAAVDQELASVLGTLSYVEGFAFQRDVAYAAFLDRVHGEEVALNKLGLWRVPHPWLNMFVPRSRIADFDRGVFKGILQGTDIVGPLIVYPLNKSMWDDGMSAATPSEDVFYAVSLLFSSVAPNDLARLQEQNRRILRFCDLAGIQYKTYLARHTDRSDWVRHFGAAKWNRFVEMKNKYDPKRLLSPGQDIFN

## O=C(Nc1ccccc1)Nc1ccnc(Cl)c1 [CPPU, 1-(2-chloropyridin-4-yl)-3phenylurea, reference compound]
[1]
  activation at 10 µM: 12%
[2]
  IC50: 20.5 µM

## O=C(Nc1ccnc(F)c1)Nc1cc(Cl)ccc1CO [Compound 2, 1-(5-chloro-2-hydroxymethylphenyl)-3-(2-fluoropyridin-4-yl)urea]
[1]
  activation at 10 µM: 23%
[2]; [4]
  IC50: 0.27 µM

## O=C(Nc1cc(Cl)nc(Cl)c1)Nc1cc(Cl)ccc1CO [Compound 6, 1-(5-chloro-2-hydroxymethylphenyl)-3-(2,6-dichloropyridin-4-yl)urea]
[1]
  activation at 10 µM: 29%
[2]; [4]
  IC50: 0.1 µM

## COc1cc(NC(=O)Nc2cc(Br)ccc2CO)ccn1 [Compound 8, 1-(5-bromo-2-hydroxy-methylphenyl)-3-(2-methoxypyridin-4-yl)urea]
[1]
  (% of chlorophyll above control): 25%
[2]
  IC50: 0.13 µM

## O=C(Nc1cc(F)nc(F)c1)Nc1cc(Cl)ccc1CCO [Compound 11, 1-[5-chloro-2-(2-hydroxyethyl)phenyl]-3-(2,6-difluoropyridin-4-yl)urea]
[1]
  activation at 10 µM: 31%
[2]; [4]
  IC50: 0.095 µM

## COc1cc(NC(=O)Nc2cc(Cl)cc(Cl)c2CCO)ccn1 [Compound 16, 1-[3,5-dichloro-2-(2-hydroxyethyl)phenyl]-3-(2-methoxypyridin-4-yl)urea]
[1]
  activation at 10 µM: 35%
[2]; [4]
  IC50: 0.081 µM

## COc1cc(Br)cc(NC(=O)Nc2ccccc2CO)c1 [Compound 22, 1-(3-bromo-5-methoxyphenyl)-3-(2-hydroxymethylphenyl)urea]
[1]
  (% of chlorophyll above control): 25%
[2]
  IC50: 0.26 µM

## COc1cc(NCCN)cc(NC(=O)Nc2cc(Cl)ccc2CO)c1 [Compound 25, 1-(5-chloro-2-hydroxymethylphenyl)-3-[3-(2-aminoethylamino)-5-methoxyphenyl]urea]
[1]
  activation at 10 µM: 45%
[2]; [4]
  IC50: 0.024 µM

## CSc1cccc(NC(=O)Nc2cc(Br)ccc2CO)c1 [Compound 27, 1-(5-bromo-2-hydroxy-methylphenyl)-3-(3-methylsulphanylphenyl)urea]
[1]
  (% of chlorophyll above control): 26%
[2]
  IC50: 0.17 µM

## O=C(Nc1cccc(OC(F)(F)F)c1)Nc1cc(Br)ccc1CO [Compound 34, 1-(5-Bromo-2-hydroxymethylphenyl)-3-(3-trifluoromethoxyphenyl)urea]
[1]
  (% of chlorophyll above control): 32%
[2]
  IC50: 0.1 µM

## NCCNc1cc(NC(=O)Nc2cc(Cl)ccc2CO)cc(OC(F)(F)F)c1 [Compound 40, 1-(5-chloro-2-hydroxymethylphenyl)-3-[3-(2-aminoethylamino)-5-trifluoromethoxyphenyl]urea]
[1]
  activation at 10 µM: 39%
[2]; [4]
  IC50: 0.01 µM

## O=C(Nc1cccc(SC(F)(F)F)c1)Nc1cc(F)ccc1CO [Compound 42, 1-(5-fluoro-2-hydroxymethylphenyl)-3-(3-trifluoromethylsulphanylphenyl)urea]
[1]
  activation at 10 µM: 25%
[2]; [4]
  IC50: 0.08 µM

## COc1cccc(NC(=O)Nc2cc(F)ccc2CCO)c1 [Compound 51, 1-[5-fluoro-2-(2-hydroxyethyl)phenyl]-3-(3-methoxyphenyl)urea]
[1]
  activation at 10 µM: 30%
[2]; [4]
  IC50: 0.08 µM

## COc1cccc(NC(=O)Nc2cc(Cl)ccc2CCO)c1 [Compound 52, 1-[5-chloro-2-(2-hydroxyethyl)phenyl]-3-(3-methoxyphenyl)urea]
[1]
  activation at 10 µM: 37%
[2]; [4]
  IC50: 0.066 µM

## COc1cccc(NC(=O)Nc2cc(Br)ccc2CCO)c1 [Compound 53]
[1]
  (% of chlorophyll above control): 35%
[2]; [4]
  IC50: 0.074 µM

## COc1cc(NCCN)cc(NC(=O)Nc2cc(Cl)ccc2CCO)c1 [Compound 59, 1-[5-chloro-2-(2-hydroxyethyl)phenyl]-3-[3-(2-aminoethylamino)-5-methoxyphenyl]urea]
[1]
  activation at 10 µM: 48%
[2]; [4]
  IC50: 0.008 µM

## CSc1cccc(NC(=O)Nc2cc(Cl)ccc2CCO)c1 [Compound 60, 1-[5-chloro-2-(2-hydroxyethyl)phenyl]-3-(3-methylsulphanylphenyl)urea]
[1]
  activation at 10 µM: 36%
[2]; [4]
  IC50: 0.035 µM

## O=C(Nc1cccc(OC(F)(F)F)c1)Nc1cc(Cl)ccc1CCO [Compound 62, 1-[5-chloro-2-(2-hydroxyethyl)phenyl]-3-(3-trifluoromethoxyphenyl)urea]
[1]
  activation at 10 µM: 39%
[2]; [4]
  IC50: 0.021 µM

## O=C(Nc1cc(Cl)cc(OC(F)(F)F)c1)Nc1ccccc1CCO [Compound 64, 1-(3-Chloro-5-trifluoromethoxyphenyl)-3-[2-(2-hydroxyethyl)phenyl]urea]
[2]
  IC50: 0.058 µM
[3]
  plant damage and senescence under salinity stress: reduced the damage and delayed the senescence
  total chlorophyll content in whole plants: untreated salinity-stressed plants have less chlorophyll than treated stressed plants: 27%

## O=C(Nc1cc(Br)cc(OC(F)(F)F)c1)Nc1ccccc1CCO [Compound 65, 1-(3-Bromo-5-trifluoromethoxyphenyl)-3-[2-(2-hydroxyethyl)phenyl]urea]
[1]
  (% of chlorophyll above control): 30%
[2]
  IC50: 0.035 µM

## O=C(Nc1cc(NCCO)cc(OC(F)(F)F)c1)Nc1ccccc1CCO [Compound 66, 1-[3-(2-Hydroxyethylamino)-5-trifluoromethoxyphenyl]-3-[2-(2-hydroxyethyl)phenyl]urea]
[1]
  activation at 10 µM: 36%
[2]; [4]
  IC50: 0.029 µM
[3]
  plant damage and senescence under salinity stress: reduced the damage and delayed the senescence
  total chlorophyll content in whole plants: untreated salinity-stressed plants have less chlorophyll than treated stressed plants: 27%

## O=C(Nc1cccc(SC(F)(F)F)c1)Nc1ccccc1CCO [Compound 68, 1-[2-(2-Hydroxyethyl)phenyl]-3-(3-trifluoromethylsulphanylphenyl)urea]
[1]
  activation at 10 µM: 34%
[2]; [4]
  IC50: 0.074 µM
